Assay: Cell-based activity under Prompt Conditions: Cell-based activity under Prompt Conditions. Rat or human NHE3-mediated Na+-dependent H+ antiport was measured using a modification of the pH sensitive dye method originally reported by Paradiso (PNAS USA. 81:7436-7440, 1984). Opossum kidney (OK) cells were obtained from the ATCC and propagated per their instructions. The rat NHE3 gene (GenBank M85300) or the human NHE3 gene (GenBank NM_004174.1) was introduced into OK cells via electroporation, and cells were seeded into 96 well plates and grown overnight. Medium was aspirated from the wells, cells were washed twice with NaCl-HEPES buffer (100 mM NaCl, 50 mM HEPES, 10 mM glucose, 5 mM KCl, 2 mM CaCl2, 1 mM MgCl2, pH 7.4), then incubated for 30 min at room temperature with NH4Cl-HEPES buffer (20 mM NH4Cl, 80 mM NaCl, 50 mM HEPES, 5 mM KCl, 2 mM CaCl2, 1 mM MgCl2, pH 7.4) containing 5 μM bis(acetoxymethyl) 3,3′-(3′,6′-bis(acetoxymethoxy)-5-((acetoxymethoxy)carbonyl)-3-oxo-3H-spiro[isobenzofuran-1,9′-xanthene]-2′,7′-diyl)dipropanoate (BCECF-AM).Cells were washed twice with Ammonium free, Na+-free HEPES (100 mM choline, 50 mM HEPES, 10 mM glucose, 5 mM KCl, 2 mM CaCl2, 1 mM MgCl2, pH 7.4) and incubated in the same buffer for 10 minutes at room temperature to lower intracellular pH. […] Initial rates were plotted as the average 2 or more replicates, and pIC50 values were estimated using GraphPad Prism.

Structure (SMILES) | IC50 [nM]
CN(CC(=O)O)CC(=O)NC(CCC(=O)NCCOCCOCCNS(=O)(=O)c1cccc([C@@H]2CN(C)Cc3c(Cl)cc(Cl)cc32)c1)(CCC(=O)NCCOCCOCCNS(=O)(=O)c1cccc([C@@H]2CN(C)Cc3c(Cl)cc(Cl)cc32)c1)CCC(=O)NCCOCCOCCNS(=O)(=O)c1cccc([C@@H]2CN(C)Cc3c(Cl)cc(Cl)cc32)c1 | 50.1
CN(C)[C@H]1Cc2c(Cl)cc(Cl)cc2[C@@H]1Oc1ccc(S(=O)(=O)NCCOCCOCCNC(=O)NCCCCNC(=O)NCCOCCOCCNS(=O)(=O)c2ccc(O[C@H]3c4cc(Cl)cc(Cl)c4C[C@@H]3N(C)C)cc2)cc1 | 6.31
CNC(=O)NC(CCC(=O)NCCOCCOCCNS(=O)(=O)c1cccc([C@@H]2CN(C)Cc3c(Cl)cc(Cl)cc32)c1)(CCC(=O)NCCOCCOCCNS(=O)(=O)c1cccc([C@@H]2CN(C)Cc3c(Cl)cc(Cl)cc32)c1)CCC(=O)NCCOCCOCCNS(=O)(=O)c1cccc([C@@H]2CN(C)Cc3c(Cl)cc(Cl)cc32)c1 | 794
CN1Cc2c(Cl)cc(Cl)cc2[C@H](c2cccc(S(=O)(=O)NCCOCCOCCNC(=O)CCC(CCC(=O)NCCOCCOCCNS(=O)(=O)c3cccc([C@@H]4CN(C)Cc5c(Cl)cc(Cl)cc54)c3)(CCC(=O)NCCOCCOCCNS(=O)(=O)c3cccc([C@@H]4CN(C)Cc5c(Cl)cc(Cl)cc54)c3)NC(=O)N(C)C[C@H](O)[C@@H](O)[C@H](O)[C@H](O)CO)c2)C1 | 7.94
CN1Cc2c(Cl)cc(Cl)cc2[C@H](c2cccc(S(=O)(=O)NCCOCCOCCNC(=O)CCC(CCC(=O)NCCOCCOCCNS(=O)(=O)c3cccc([C@@H]4CN(C)Cc5c(Cl)cc(Cl)cc54)c3)(CCC(=O)NCCOCCOCCNS(=O)(=O)c3cccc([C@@H]4CN(C)Cc5c(Cl)cc(Cl)cc54)c3)NS(C)(=O)=O)c2)C1 | 631
CN1Cc2c(Cl)cc(Cl)cc2[C@H](c2cccc(S(=O)(=O)NCCOCCOCCNC(=O)CCC(CCC(=O)NCCOCCOCCNS(=O)(=O)c3cccc([C@@H]4CN(C)Cc5c(Cl)cc(Cl)cc54)c3)(CCC(=O)NCCOCCOCCNS(=O)(=O)c3cccc([C@@H]4CN(C)Cc5c(Cl)cc(Cl)cc54)c3)NC(=O)CCC(=O)O)c2)C1 | 31.6
CN1Cc2c(Cl)cc(Cl)cc2[C@H](c2cccc(S(=O)(=O)N(C)CCOCCOCCNC(=O)CCN(CCC(=O)NCCOCCOCCN(C)S(=O)(=O)c3cccc([C@@H]4CN(C)Cc5c(Cl)cc(Cl)cc54)c3)CCC(=O)NCCOCCOCCN(C)S(=O)(=O)c3cccc([C@@H]4CN(C)Cc5c(Cl)cc(Cl)cc54)c3)c2)C1 | 316
O=C(NCCOCCOCCOCCNS(=O)(=O)c1ccc(O[C@H]2c3ccccc3C[C@@H]2N2CCCCC2)cc1)c1ccc(C(=O)NCCOCCOCCOCCNS(=O)(=O)c2ccc(O[C@H]3c4ccccc4C[C@@H]3N3CCCCC3)cc2)cc1 | 31.6
CN(C)[C@H]1Cc2ccc(Cl)cc2[C@@H]1Oc1ccc(S(=O)(=O)NCCOCCOCCNC(=O)NCCCCNC(=O)NCCOCCOCCNS(=O)(=O)c2ccc(O[C@H]3c4cc(Cl)ccc4C[C@@H]3N(C)C)cc2)cc1 | < 10000
CN1Cc2c(Cl)cc(Cl)cc2[C@H](c2cccc(S(=O)(=O)NCCOCCOCCOCCNCc3ccc(-c4ccc(Cl)cc4)cc3)c2)C1 | < 10000
CN1Cc2c(Cl)cc(Cl)cc2[C@H](c2cccc(S(=O)(=O)NCCOCCOCCNC(=O)NCCN(CCNC(=O)NCCOCCOCCNS(=O)(=O)c3cccc([C@@H]4CN(C)Cc5c(Cl)cc(Cl)cc54)c3)C(=O)NCCOCCOCCNC(=O)c3ccc(-c4ccc(Cl)cc4)cc3)c2)C1 | 1580
CCCCCCCCOc1ccc(CNCCOCCOCCOCCNS(=O)(=O)c2cccc([C@@H]3CN(C)Cc4c(Cl)cc(Cl)cc43)c2)cc1 | < 10000
CN1Cc2c(Cl)cc(Cl)cc2[C@H](c2cccc(S(=O)(=O)NCCOCCOCCNC(=O)CCC(CCC(=O)NCCOCCOCCNS(=O)(=O)c3cccc([C@@H]4CN(C)Cc5c(Cl)cc(Cl)cc54)c3)(CCC(=O)NCCOCCOCCNS(=O)(=O)c3cccc([C@@H]4CN(C)Cc5c(Cl)cc(Cl)cc54)c3)NCc3ccc(-c4ccc(Cl)cc4)cc3)c2)C1 | < 10000
CN1Cc2c(Cl)cc(Cl)cc2[C@H](c2cccc(S(=O)(=O)NCCOCCOCCNC(=O)CCC(CCC(=O)NCCOCCOCCNS(=O)(=O)c3cccc([C@@H]4CN(C)Cc5c(Cl)cc(Cl)cc54)c3)(CCC(=O)NCCOCCOCCNS(=O)(=O)c3cccc([C@@H]4CN(C)Cc5c(Cl)cc(Cl)cc54)c3)NC(N)=O)c2)C1 | 316
O=C(NCCCCNC(=O)NCCOCCOCCNS(=O)(=O)c1ccc(O[C@H]2c3cc(F)ccc3C[C@@H]2N2CCCCC2)cc1)NCCOCCOCCNS(=O)(=O)c1ccc(O[C@H]2c3cc(F)ccc3C[C@@H]2N2CCCCC2)cc1 | 1.26
CN1Cc2c(Cl)cc(Cl)cc2[C@H](c2cccc(S(=O)(=O)NCCOCCOCCNC(=O)CCC(CCC(=O)NCCOCCOCCNS(=O)(=O)c3cccc([C@@H]4CN(C)Cc5c(Cl)cc(Cl)cc54)c3)(CCC(=O)NCCOCCOCCNS(=O)(=O)c3cccc([C@@H]4CN(C)Cc5c(Cl)cc(Cl)cc54)c3)NC(=O)CCCC(=O)O)c2)C1 | 50.1

Structure (SMILES) | IC50 [nM]
CC(C)CCC[C@@H](C)[C@H]1CC[C@H]2[C@@H]3CC=C4C[C@@H](OC(=O)NCCOCCOCCNC(=O)N(CCNC(=O)NCCOCCOCCNS(=O)(=O)c5cccc([C@@H]6CN(C)Cc7c(Cl)cc(Cl)cc76)c5)CCNC(=O)NCCOCCOCCNS(=O)(=O)c5cccc([C@@H]6CN(C)Cc7c(Cl)cc(Cl)cc76)c5)CC[C@]4(C)[C@H]3CC[C@]12C | < 10000
CN1Cc2c(Cl)cc(Cl)cc2[C@H](c2cccc(S(=O)(=O)NCCOCCOCCNC(=O)CN(CCOCCOCCOCCN)CC(=O)NCCOCCOCCNS(=O)(=O)c3cccc([C@@H]4CN(C)Cc5c(Cl)cc(Cl)cc54)c3)c2)C1 | 15.8
CCN(CCOCCOCCNC(=O)NCCCN(CCCNC(=O)NCCOCCOCCN(CC)S(=O)(=O)c1cccc([C@@H]2CN(C)Cc3c(Cl)cc(Cl)cc32)c1)CCCNC(=O)NCCOCCOCCN(CC)S(=O)(=O)c1cccc([C@@H]2CN(C)Cc3c(Cl)cc(Cl)cc32)c1)S(=O)(=O)c1cccc([C@@H]2CN(C)Cc3c(Cl)cc(Cl)cc32)c1 | 1000
CN(C)CC(=O)NC(CCC(=O)NCCOCCOCCNS(=O)(=O)c1cccc([C@@H]2CN(C)Cc3c(Cl)cc(Cl)cc32)c1)(CCC(=O)NCCOCCOCCNS(=O)(=O)c1cccc([C@@H]2CN(C)Cc3c(Cl)cc(Cl)cc32)c1)CCC(=O)NCCOCCOCCNS(=O)(=O)c1cccc([C@@H]2CN(C)Cc3c(Cl)cc(Cl)cc32)c1 | 79.4
CN(C)[C@H]1Cc2ccc(F)cc2[C@@H]1Oc1ccc(S(=O)(=O)NCCOCCOCCNC(=O)NCCCCNC(=O)NCCOCCOCCNS(=O)(=O)c2ccc(O[C@H]3c4cc(F)ccc4C[C@@H]3N(C)C)cc2)cc1 | < 10000
CN1Cc2c(Cl)cc(Cl)cc2[C@H](c2cccc(S(=O)(=O)NCCOCCOCCNC(=O)CCC(CCC(=O)NCCOCCOCCNS(=O)(=O)c3cccc([C@@H]4CN(C)Cc5c(Cl)cc(Cl)cc54)c3)(CCC(=O)NCCOCCOCCNS(=O)(=O)c3cccc([C@@H]4CN(C)Cc5c(Cl)cc(Cl)cc54)c3)NC(=O)N(C)C)c2)C1 | 2510
CC(C)CCC[C@@H](C)[C@H]1CC[C@H]2[C@@H]3CC=C4C[C@@H](OC(=O)NCCOCCOCCOCCNS(=O)(=O)c5cccc([C@@H]6CN(C)Cc7c(Cl)cc(Cl)cc76)c5)CC[C@]4(C)[C@H]3CC[C@]12C | < 10000
CN(C)[C@H]1Cc2ccccc2[C@@H]1Oc1ccc(S(=O)(=O)NCCOCCOCCNC(=O)NCCCCNC(=O)NCCOCCOCCNS(=O)(=O)c2ccc(O[C@H]3c4ccccc4C[C@@H]3N(C)C)cc2)cc1 | < 10000
CC(C)(C(=O)NCCOCCOCCOCCNS(=O)(=O)c1ccc(O[C@H]2c3ccccc3C[C@@H]2N2CCCCC2)cc1)C(=O)NCCOCCOCCOCCNS(=O)(=O)c1ccc(O[C@H]2c3ccccc3C[C@@H]2N2CCCCC2)cc1 | 2
O=C(NCCOCCOCCOCCNS(=O)(=O)c1ccc(O[C@H]2c3ccccc3C[C@@H]2N2CCCCC2)cc1)c1cccc(C(=O)NCCOCCOCCOCCNS(=O)(=O)c2ccc(O[C@H]3c4ccccc4C[C@@H]3N3CCCCC3)cc2)c1 | 39.8
N[C@@H]1CCCN([C@H]2Cc3c(Cl)cc(Cl)cc3[C@@H]2Oc2ccc(S(=O)(=O)NCCOCCOCCNC(=O)NCCCCNC(=O)NCCOCCOCCNS(=O)(=O)c3ccc(O[C@H]4c5cc(Cl)cc(Cl)c5C[C@@H]4N4CCC[C@@H](N)C4)cc3)cc2)C1 | 39.8
CN1Cc2c(Cl)cc(Cl)cc2[C@H](c2cccc(S(=O)(=O)NCCOCCOCCNC(=O)CCC(CCC(=O)NCCOCCOCCNS(=O)(=O)c3cccc([C@@H]4CN(C)Cc5c(Cl)cc(Cl)cc54)c3)(CCC(=O)NCCOCCOCCNS(=O)(=O)c3cccc([C@@H]4CN(C)Cc5c(Cl)cc(Cl)cc54)c3)NC(=O)COCC(=O)O)c2)C1 | 25.1
O=C(NCCCCNC(=O)NCCOCCOCCNC(=O)Nc1cccc(O[C@H]2c3ccccc3C[C@@H]2N2CCCCC2)c1)NCCOCCOCCNC(=O)Nc1cccc(O[C@H]2c3ccccc3C[C@@H]2N2CCCCC2)c1 | < 10000
CN1Cc2c(Cl)cc(Cl)cc2[C@H](c2cccc(S(=O)(=O)NCCOCCOCCOCCNC(=O)CCC(CCC(=O)NCCOCCOCCOCCNS(=O)(=O)c3cccc([C@@H]4CN(C)Cc5c(Cl)cc(Cl)cc54)c3)(CCC(=O)NCCOCCOCCOCCNS(=O)(=O)c3cccc([C@@H]4CN(C)Cc5c(Cl)cc(Cl)cc54)c3)NCc3ccc(-c4ccc(Cl)cc4)cc3)c2)C1 | < 10000
CN1Cc2c(Cl)cc(Cl)cc2[C@H](c2cccc(S(=O)(=O)NCCOCCOCCNC(=O)CCC(CCC(=O)NCCOCCOCCNS(=O)(=O)c3cccc([C@@H]4CN(C)Cc5c(Cl)cc(Cl)cc54)c3)(CCC(=O)NCCOCCOCCNS(=O)(=O)c3cccc([C@@H]4CCN(C)c5c(Cl)cc(Cl)cc54)c3)NC(=O)[C@H]3CCCC[C@@H]3C(=O)O)c2)C1 | 126
CN1Cc2c(Cl)cc(Cl)cc2C(c2cccc(S(=O)(=O)NCCOCCOCCNC(=O)CCC(CCC(=O)NCCOCCOCCNS(=O)(=O)c3cccc([C@@H]4CN(C)Cc5c(Cl)cc(Cl)cc54)c3)(CCC(=O)NCCOCCOCCNS(=O)(=O)c3cccc([C@@H]4CN(C)Cc5c(Cl)cc(Cl)cc54)c3)N(C)C)c2)C1 (some centres not stated) | 67.6
